Data as given in patent publication US20150374705A1, “Substances for treatment or relief of pain” (Shanghai Institues for Biological Sciences, priority 2012, published 2015).
“Also recorded” adds a separate entry of the source.

Assays:
[1] = molecular target: T1, Human recombinant GABAA receptor containing α5 subunit (α5, β3, γ2) (Homo sapiens, UniProt P18507+P31644); experiment: Competitive radioligand binding ([3H]Ro-0151788) on membranes of 293 cells, Ki; settings: human recombinant GABAA subtype containing α5; read-out: Affinity, nM (α5)
T1 construct: expressed in transfected cells; host or cells: 293 cell line
Description: (§1) Different subunits of GABAA receptor were expressed in cell lines, including human kidney epithelial cell line, 293 cell line or L(tk−) cell line. The cells were cultured in medium, and such cells were used as the cellular model for screening drugs to suppress pain. a subunit, β subunit and γ subunit are indispensable for one complete functional GABAA receptor.
(§2) In this example, the inventors established the following cellular models:
(a) simultaneously expressing α5 subunit (for the protein sequence, see GenBank accession number NM_001165037.1), β3 subunit (for the protein sequence, see GenBank accession number NM_021912.4) and γ2 subunit (for the protein sequence, see GenBank accession number NM_198904.2) in 293 cell line, forming the GABAA receptor containing α5 subunit;
(§3) Each of the (a) to (d) above could form a GABAA receptor with complete function.
(§4) Then, the cellular membrane was extracted and the protein concentration was measured. The competitive binding of the substances to be measured and radiolabelled compounds (e.g. 1 nM [^3H]Ro-0151788) were detected respectively to calculate the Ki value of the substances to be measured, see the method described in literature (Ballard T M et al., RO4938581, a novel cognitive enhancer acting at GABAA alpha5 subunit-containing receptors. Psychopharmacology (Berl). 2009 January; 202(1-3): 207-23). If the binding inhibition constant Ki (nM) of α5-GABAA receptor with the candidate substances in experimental group is less than the Ki of the receptor containing other a subunit (α1 subunit, α2 subunit or α3 subunit), then the candidate substance is a potential drugs for preventing, relieving or treating pain. Many methods can be used by those skilled in the art to evaluate the binding capacity of the ligand of α5-GABAA receptor to the α5-GABAA receptor, including but not limiting to the method above.

[2] = molecular target: T2, Human recombinant GABAA receptor containing α1 subunit (α1, β3, γ2) (Homo sapiens, UniProt P14867+P18507); experiment: as above; settings: human recombinant GABAA subtype containing α1; read-out: Affinity, nM (α1)
T2 construct: expressed in transfected cells; host or cells: 293 cell line
Description: as §1, §2
(b) simultaneously expressing α1 subunit (GenBank accession number: NM_001127648.1), β3 subunit and γ2 subunit in 293 cell line, forming the GABAA receptor containing α1 subunit; • (c) simultaneously expressing α2 subunit (for the protein sequence, see GenBank accession number NM_000813.2), β3 subunit and γ2 subunit in 293 cell line, forming the GABAA receptor containing α2 subunit;
as §3, §4

[3] = test system: SNI model rats (neuropathic pain); experiment: Spared nerve injury (SNI) model, neuropathic pain, mechanical pain threshold; type: in vivo; settings: rat; for Suppression of neuropathic pain (nociceptive threshold): 3 mg/kg injection, 0.5-24 hours after administration; for Suppression of neuropathic pain (nociceptive threshold) / Tolerance on continuous administration: 14 days after SNI; for Tolerance on continuous administration: continuous injection for 6 days, measured 1-3 hours after administration
Summary of the method: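 Male SD rats (200-250 g, n=6) with spared nerve injury (tibial and common peroneal ligated and cut, sural spared) were tested blind. Von Frey filaments (1-50 g) on the plantar paw gave the 50% withdrawal threshold. Compounds in 70% PEG400 were injected at 2-3 mg/kg; MRK016-M3 in 90% PEG400 was given orally at 0.3-10 mg/kg; unpaired t-test.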

[4] = molecular target: T3, Human recombinant GABAA receptor containing α3 subunit (α3, β3, γ2) (Homo sapiens, UniProt P18507+P34903); experiment: Competitive radioligand binding ([3H]Ro-0151788) on membranes of 293 cells, Ki; settings: human recombinant GABAA subtype containing α3; read-out: Affinity, nM (α3)
T3 construct: expressed in transfected cells; host or cells: 293 cell line
Description: as §1, §2
(d) simultaneously expressing α3 subunit (for the protein sequence, see GenBank accession number NM_000808.3), β3 subunit and γ2 subunit in 293 cell line, forming the GABAA receptor containing α3 subunit;
as §3, §4

[5] = test system: CFA induced inflammatory pain model rats (heat pain); experiment: CFA induced inflammatory pain model, heat pain threshold; type: in vivo; settings: rat
[6] = test system: CFA induced inflammatory pain model rats (mechanical pain); experiment: CFA induced inflammatory pain model, mechanical pain threshold; type: in vivo; settings: rat

SMILES | Ki [1] [nM] | Ki [2] [nM] | Suppression of neuropathic pain, topical administration ([3]; 100 microliter (1 mg/ml) injected to the feet, 10 days after SNI) | Suppression of neuropathic pain (pain threshold) in rats injected with control siRNA ([3]; oral 3 mg/kg, control siRNA intrathecal, 3 mg/kg) | Suppression of neuropathic pain (pain threshold) in rats injected with siRNA specific to α5 subunit ([3]; oral 3 mg/kg, α5-specific siRNA intrathecal, 3 mg/kg) | Suppression of neuropathic pain (mechanical pain), dose-dependent experiment ([3]; oral 10 mg/kg, 3 mg/kg and 1 mg/kg, 10 to 20 days after SNI, 1 hour after administration) | Ki [4] [nM] | Suppression of heat pain ([5]; oral administration, 3 days after CFA model, 1 hour after administration) | Suppression of mechanical pain ([6]; oral administration, 7 days after CFA model, 1 hour after administration) | Suppression of neuropathic pain (nociceptive threshold) ([3]; 3 mg/kg) | Suppression of neuropathic pain (nociceptive threshold) ([3]; listed as A5I, 3 mg/kg) | Tolerance on continuous administration [3] | Tolerance on continuous administration ([3]; listed as A5I) | Suppression of heat pain ([5]; 3 mg/kg intraperitoneal, 3 days after CFA, 0.5-3.0 hours after administration, listed as A5I, 3 mg/kg) | Suppression of mechanical pain ([6]; 3 mg/kg intraperitoneal, 7 days after CFA, 0.5-24 hours after administration, listed as A5I, 3 mg/kg)
Cn1ncnc1COc1nn2c(-c3cc(CO)on3)nncc2c1C(C)(C)C [MRK016-M3, (3-(3-tert-butyl-2-((2-methyl-2H-1,2,4-triazol-3-yl)methoxy)pyrazolo [1,5-d][1,2,4]triazin-7-yl)isoxazol-5-yl)methanol] | 1.1 | 1.5 | still efficiently suppressed | significantly suppressed neuropathic pain; also recorded: significantly increased the pain threshold | no obvious effect; also recorded: did not significantly increase the nociceptive threshold | significantly suppressed | 0.69 | significantly suppress inflammatory pain; also recorded: significantly suppressed pain | significantly suppress inflammatory pain; also recorded: significantly suppressed pain | – | – | – | – | – | –
Cc1cc(-c2nnc3c4ccccc4c(OCC4=CC(C)C=N4)nn23)no1 (stereo not drawn) [α5IA] | 0.66 | 0.88 | – | – | – | – | 0.61 | – | – | significantly suppressed neuropathic pain | efficiently suppressed neuropathic pain | did not generate tolerance response | did not produce tolerance | efficiently inhibit inflammatory pain; also recorded: efficiently treat heat pain | efficiently treat mechanical pain; also recorded: efficiently inhibit inflammatory pain
